Laboratory results: US8710224B2, “Heterocyclic compounds as CCR2B antagonists” (AstraZeneca AB, priority 2004, dated 2014)

Biological target: T1, recombinant human CCR5 receptor (Homo sapiens, UniProt P51681)
T1 construct: expressed in transfected cells; host or cells: Chinese hamster ovary (CHO) cells; membranes
Assay: Radioligand binding assay for inhibition of the binding of MIP-1α
Conditions: displacement of 0.1 nM iodinated MIP-1α; membranes of Chinese hamster ovary cells expressing CCR5
Experimental: Biological Assay for the Ability of Compounds to Inhibit the Binding of MIP-1α This ability is assessed using an in vitro radioligand binding assay. Membranes are prepared from Chinese hamster ovary cells which express the recombinant human CCR5 receptor. These membranes are incubated with 0.1 nM iodinated MIP-1α, scintillation proximity beads and various concentrations of the compounds of the invention in 96-well plates. The amount of iodinated MIP-1α bound to the receptor is then determined by scintillation counting.

T1 sequence (P51681 whole entry): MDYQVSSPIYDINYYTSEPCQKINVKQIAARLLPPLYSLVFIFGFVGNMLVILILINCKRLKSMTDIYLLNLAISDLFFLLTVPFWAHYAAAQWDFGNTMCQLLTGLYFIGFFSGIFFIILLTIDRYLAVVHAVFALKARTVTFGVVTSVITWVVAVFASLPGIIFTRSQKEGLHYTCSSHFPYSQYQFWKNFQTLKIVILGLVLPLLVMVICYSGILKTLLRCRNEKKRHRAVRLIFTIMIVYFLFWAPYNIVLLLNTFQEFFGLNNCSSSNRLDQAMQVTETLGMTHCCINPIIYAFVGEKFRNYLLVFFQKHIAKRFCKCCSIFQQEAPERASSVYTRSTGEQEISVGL

Row | IC50 | SMILES
1 | < 10 µM | O=C(Nc1ccc(Cl)c(Cl)c1)N1CCN(C[C@@H]2CCCN(C3Cc4ccccc4C3)C2)CC1 [Example 161, N-(3,4-dichlorophenyl)-4-{[(3S)-1-(2,3-dihydro-1H-inden-2-yl)piperidin-3-yl]methyl}piperazine-1-carboxamide]
2 | < 10 µM | N#Cc1ccc(OCCN2CCC[C@@H](CN3CCN(C(=O)Nc4ccc(Cl)c(Cl)c4)CC3)C2)cc1 [Example 170, 4-({(3S)-1-[2-(4-Cyanophenoxy)ethyl]piperidin-3-yl}methyl)-N-(3,4-dichlorophenyl)piperazine-1-carboxamide]
3 | < 10 µM | O=C(Nc1ccc(Cl)c(Cl)c1)N1CCN(C[C@@H]2CCCN(CCOc3ccc(F)cc3)C2)CC1 [Example 171, N-(3,4-Dichlorophenyl)-4-({(3S)-1-[2-(4-fluorophenoxy)ethyl]piperidin-3-yl}methyl)piperazine-1-carboxamide]
4 | < 10 µM | O=C(Nc1ccc(Cl)c(Cl)c1)N1CCN(C[C@@H]2CCCN(C3CCOCC3)C2)CC1 [Example 172, N-(3,4-Dichlorophenyl)-4-{[(3S)-1-(tetrahydro-2H-pyran-4-yl)piperidin-3-yl]methyl}piperazine-1-carboxamide]
5 | < 10 µM | CC(=O)N1CCC(N2CCC[C@@H](CN3CCN(C(=O)Nc4ccc(Cl)c(Cl)c4)CC3)C2)CC1 [Example 175, 4-{[(3S)-1′-Acetyl-1,4′-bipiperidin-3-yl]methyl}-N-(3,4-dichlorophenyl)piperazine-1-carboxamide]
6 | < 10 µM | CS(=O)(=O)N1CCC(N2CCC[C@@H](CN3CCN(C(=O)Nc4ccc(Cl)c(Cl)c4)CC3)C2)CC1 [Example 176, N-(3,4-Dichlorophenyl)-4-{[(3S)-1′-(methylsulfonyl)-1,4′-bipiperidin-3-yl]methyl}piperazine-1-carboxamide]
7 | < 10 µM | O=C(Nc1cccc(Cl)c1)N1CCN(C[C@@H]2CCCN(CCc3ccccc3)C2)CC1 [Example 180, N-(3-chlorophenyl)-4-{[(3R)-1-(2-phenylethyl)piperidin-3-yl]methyl} piperazine-1-carboxamide]
8 | < 10 µM | O=C(Nc1ccc(Cl)cc1)N1CCN(C[C@@H]2CCCN(CCc3ccccc3)C2)CC1 [Example 181, N-(4-chlorophenyl)-4-{[(3R)-1-(2-phenylethyl)piperidin-3-yl]methyl} piperazine-1-carboxamide]
9 | < 10 µM | O=C(Nc1ccc(Cl)c(C(F)(F)F)c1)N1CCN(C[C@@H]2CCCN(C3CC3)C2)CC1 [Example 186, N-[4-chloro-3-(trifluoromethyl)phenyl]-4-{[(3S)-1-cyclopropylpiperidin-3-yl]methyl}piperazine-1-carboxamide]
10 | < 10 µM | Cc1ccc(NC(=O)N2CCN(C[C@H]3CN(C(C)C)CCO3)CC2)cc1Cl [Example 187, N-(3-chloro-4-methylphenyl)-4-{[(2S)-4-isopropylmorpholin-2-yl]methyl}piperazine-1-carboxamide]
11 | < 10 µM | CC(C)N1CCO[C@@H](CN2CCN(C(=O)Nc3cccs3)CC2)C1 [Example 188, 4-{[(2S)-4-isopropylmorpholin-2-yl]methyl}-N-2-thienylpiperazine-1-carboxamide]
12 | < 10 µM | CC(C)N1CCO[C@@H](CN2CCN(C(=O)Nc3ccc(C(F)(F)F)nc3)CC2)C1 [Example 192, 4-{[(2S)-4-isopropylmorpholin-2-yl]methyl}-N-[6-(trifluoromethyl)pyridin-3-yl]piperazine-1-carboxamide]
13 | < 10 µM | Cc1nn(C)cc1CN1CCC[C@@H](CN2CCN(C(=O)Nc3ccc(Cl)c(Cl)c3)CC2)C1 [Example 197, N-(3,4-Dichlorophenyl)-4-({(3R)-1-[(1,3-dimethyl-1H-pyrazol-4-yl)methyl]piperidin-3-yl}methyl)piperazine-1-carboxamide]
14 | < 10 µM | O=C(Nc1ccc(Cl)c(Cl)c1)N1CCN(C[C@@H]2CCCN(Cc3c[nH]nc3-c3cccs3)C2)CC1 [Example 199, N-(3,4-Dichlorophenyl)-4-[((3R)-1-{[3-(2-thienyl)-1H-pyrazol-4-yl]methyl}piperidin-3-yl)methyl]piperazine-1-carboxamide]
15 | < 10 µM | O=C(Nc1ccc(Cl)c(Cl)c1)N1CCN(C[C@@H]2CCCN(Cc3c[nH]nc3-c3ccccc3)C2)CC1 [Example 200, N-(3,4-Dichlorophenyl)-4-({(3R)-1-[(3-phenyl-1H-pyrazol-4-yl)methyl]piperidin-3-yl}methyl)piperazine-1-carboxamide]
16 | < 10 µM | O=C(Nc1ccc(Cl)c(Cl)c1)N1CCN(C[C@@H]2CCCN(CCC3CCOCC3)C2)CC1 [Example 203, N-(3,4-Dichlorophenyl)-4-({(3R)-1-[2-(tetrahydro-2H-pyran-4-yl)ethyl]piperidin-3-yl}methyl)piperazine-1-carboxamide]
17 | < 10 µM | O=C(Nc1ccc(Cl)c(Cl)c1)N1CCN(C[C@@H]2CCCN(CCC3CCNCC3)C2)CC1 [Example 205, N-(3,4-Dichlorophenyl)-4-{[(3R)-1-(2-piperidin-4-ylethyl)piperidin-3-yl]methyl}piperazine-1-carboxamide]

Row | IC50 | SMILES
18 | < 10 µM | CN1CCN(C)C(CN2CCN(C(=O)Nc3ccc(Cl)c(Cl)c3)CC2)C1 (stereo not shown) [Example 209, 1-{[1,4-Dimethylpiperazin-3-yl]methyl}-N-(3,4-dichlorophenyl)piperazine-4-carboxamide]
19 | < 10 µM | CN1CCN[C@@H](C(=O)N2CCN(C(=O)Nc3ccc(Cl)c(Cl)c3)CC2)C1 [Example 210, N-(3,4-Dichlorophenyl)-4-{[(2R)-4-methylpiperazin-2-yl]carbonyl}piperazine-1-carboxamide]
20 | < 10 µM | CC(C)N1CCN[C@@H](C(=O)N2CCN(C(=O)Nc3cccc(Cl)c3)CC2)C1 [Example 211, N-(3-chlorophenyl)-4-{[(2R)-4-isopropylpiperazin-2-yl]carbonyl}piperazine-1-carboxamide]
21 | < 10 µM | CC(C)N1CCN[C@@H](C(=O)N2CCN(C(=O)Nc3ccc(C(F)(F)F)cc3)CC2)C1 [Example 212, 4-{[(2R)-4-isopropylpiperazin-2-yl]carbonyl}-N-[4-(trifluoromethyl)phenyl]piperazine-1-carboxamide]
22 | < 10 µM | CC(C)N1CCN[C@@H](C(=O)N2CCN(C(=O)Nc3ccc(Cl)c(C(F)(F)F)c3)CC2)C1 [Example 213, N-[4-chloro-3-(trifluoromethyl)phenyl]-4-{[(2R)-4-isopropylpiperazin-2-yl]carbonyl}piperazine-1-carboxamide]
23 | < 10 µM | CC(C)N1CCN[C@@H](C(=O)N2CCN(C(=O)Nc3cccc(C(F)(F)F)c3)CC2)C1 [Example 214, 4-{[(2R)-4-isopropylpiperazin-2-yl]carbonyl}-N-[3-(trifluoromethyl)phenyl]piperazine-1-carboxamide]
24 | < 10 µM | CC(C)N1CCN[C@@H](C(=O)N2CCN(C(=O)Nc3ccc(Cl)cc3)CC2)C1 [Example 215, N-(4-chlorophenyl)-4-{[(2R)-4-isopropylpiperazin-2-yl]carbonyl}piperazine-1-carboxamide]
25 | < 10 µM | CC(C)N1CCN[C@@H](C(=O)N2CCN(C(=O)Nc3ccc(F)c(Cl)c3)CC2)C1 [Example 216]
26 | < 10 µM | Cc1ccc(NC(=O)N2CCN(C(=O)[C@H]3CN(C(C)C)CCN3)CC2)cc1F [Example 218, N-(3-fluoro-4-methylphenyl)-4-{[(2R)-4-isopropylpiperazin-2-yl]carbonyl}piperazine-1-carboxamide]
27 | < 10 µM | CCC(C)N1CCN[C@@H](C(=O)N2CCN(C(=O)Nc3ccc(Cl)c(Cl)c3)CC2)C1 (stereo partly drawn) [Example 220, 4-{[(2R)-4-sec-butylpiperazin-2-yl]carbonyl}-N-(3,4-dichlorophenyl)piperazine-1-carboxamide]
28 | < 10 µM | O=C(Nc1ccc(Cl)c(Cl)c1)N1CCN(C(=O)[C@H]2CN(C3CCOCC3)CCN2)CC1 [Example 221, N-(3,4-dichlorophenyl)-4-{[(2R)-4-(tetrahydro-2H-pyran-4-yl)piperazin-2-yl]carbonyl}piperazine-1-carboxamide]
29 | < 10 µM | O=C(Nc1ccc(Cl)c(Cl)c1)N1CCN(C[C@H]2CCN([C@H]3CC[C@](O)(c4cccnc4)CC3)C2)CC1 [Example 228, N-(3,4-dichlorophenyl)-4-{[(3R)-1-(cis-4-hydroxy-4-pyridin-3-ylcyclohexyl)pyrrolidin-3-yl]methyl}piperazine-1-carboxamide]
30 | < 10 µM | O=C(Nc1ccc(Cl)c(Cl)c1)N1CCN(C[C@@H]2CCN([C@H]3CC[C@](O)(c4nccs4)CC3)C2)CC1 [Example 229, N-(3,4-dichlorophenyl)-4-({(3S)-1-[cis-4-hydroxy-4-(1,3-thiazol-2-yl)cyclohexyl]pyrrolidin-3-yl}methyl)piperazine-1-carboxamide]
31 | < 10 µM | CC(C)N1CC[C@@H](CN2CCN(C(=O)Nc3ccc(Cl)c(Cl)c3)CC2)C1 [Example 231, N-(3,4-dichlorophenyl)-4-{[(3S)-1-isopropylpyrrolidin-3-yl]methyl}piperazine-1-carboxamide]
32 | < 10 µM | O=C(Nc1ccc(Cl)c(Cl)c1)N1CCN(C[C@H]2CCN([C@H]3CC[C@H](O)CC3)C2)CC1 [Example 232, N-(3,4-dichlorophenyl)-4-{[(3R)-1-(trans-4-hydroxycyclohexyl)pyrrolidin-3-yl]methyl}piperazine-1-carboxamide]
33 | < 10 µM | C[C@@H](Cc1ccc(F)cc1)N1CCO[C@@H](CN2CCN(C(=O)Nc3ccc(F)c(Cl)c3)CC2)C1 [Example 233, N-(3-chloro-4-fluorophenyl)-4-({(2S)-4-[(1S)-2-(4-fluorophenyl)-1-methylethyl]morpholin-2-yl}methyl)piperazine-1-carboxamide]
34 | < 10 µM | C[C@H](CC1CCCC1)N1CCO[C@@H](CN2CCN(C(=O)Nc3ccc(F)c(Cl)c3)CC2)C1 [Example 234, N-(3-chloro-4-fluorophenyl)-4-({(2S)-4-[(1R)-2-cyclopentyl-1-methylethyl]morpholin-2-yl}methyl)piperazine-1-carboxamide]
